In ChEMBL document CHEMBL5126661, “Experimental and Computational Studies on the Biotransformation of Pseudopyronines with Human Cytochrome P450 CYP4F2” (2022):

What was measured:
Assay type in all cases: functional
Staphylococcus aureus = assay: Antibacterial activity against Staphylococcus aureus ATCC12600 assessed as inhibition of bacterial growth by broth microdilution method
[1] = system: Staphylococcus epidermidis; assay: Antibacterial activity against Staphylococcus epidermidis ATCC14990 assessed as inhibition of bacterial growth by broth microdilution method
Streptococcus mutans = assay: Antibacterial activity against Streptococcus mutans ATCC25175 assessed as inhibition of bacterial growth by broth microdilution method
Moraxella catarrhalis = assay: Antibacterial activity against Moraxella catarrhalis ATCC25238 assessed as inhibition of bacterial growth by broth microdilution method

Measured: MIC

CCCCCCCc1cc(O)c(CCCCCC)c(=O)o1 [PSEUDOPYRONINES B]
2.1 µg/mL: all assays above
